According to patent US5776720A, “Assay reagent” (priority 1995, dated 1998):
Several values for one entry are separate records, joined by “and”; a condition that tells them apart may be missing. Identical values can stand only once. Numbered stars: 1 amine (or outer) side, 2 acyl side, 3 side chain; on linkers, the order of the positions; unused ones are H or OH. Bridge positions count the residues as written; N and C are the ends. Peptide text beside a SMILES is read from it. I, II: the chains in the order shown. Rhodamine110 = O=C1OC2(c3ccc(N[*:1])cc3Oc3cc(N[*:2])ccc32)c2ccccc21

How the values were obtained:
Format in all cases: cell-based, human
erythrocytes = test: Normal erythrocyte enzyme activity (Table 3B); conditions: normal donors
Description: A sample, consisting of whole blood (in EDTA, Heparin or ACD) or dissociated tissue or body fluids (synovial fluid) or cell culture media is obtained and stored in a manner so as not to decrease viability. The sample is washed sufficiently to remove plasma, media, body fluid, debris and extra-cellular enzymes. The wash media consists of a physiologically balanced buffered salt solution. The washed cells are incubated at 37° C. 50 μL of sample and 25 μL of substrate media are mixed together and allowed to incubate at 37° C. for a predetermined amount of time. At the end of the incubation period, the sample is then measured for fluorescence.
(§1) A normal in house adult donor pool was drawn, recording sex and determining that no known disease state was present at the time of sample draw. Criteria for rejecting samples included patients under medication, patients with infection or inflammation of any type, colds and flu as well as any known medical illness such as cancer, heart ailment and high blood pressure. A donor list of 75 patients has been developed and a mean and 2 sd range established. A subgroup of "super normals" was developed from this list by examining the 75 patients to determine which group falls closest to the mean for all enzymes in all cell types tested. These patients were used as the "wellness index" or best group of "normalcy" patients. If a study required the use of children or newborns then this same format was used to develop a data base for these age groups.

monocytes = test: Normal leukocyte enzyme activity (Table 3A), monocytes; set-up: unit not given here; conditions: normal donors
Description: (§2) The measured fluorescence intensity can be converted from mean channel fluorescence (in peak or integrated mode) to MESF (molecules of equivalent soluble fluorochrome, Flow Cytometry Standards Corp. , San Juan, Puerto Rico) or International Units of hydrolysis per cell. A normal range of enzyme activity is established by assaying males and females in sufficient quantity to characterize the population levels statistically.
as §1

granulocytes = test: Normal leukocyte enzyme activity (Table 3A), granulocytes; set-up: unit not given here; conditions: normal donors
Description: as §2, §1

lymphocytes = test: Normal leukocyte enzyme activity (Table 3A), lymphocytes; set-up: unit not given here; conditions: normal donors
Description: as §2, §1

[1] = system: Ala-aminopeptidase and Lys-aminopeptidase, Dipeptidyl peptidase IV and Cathepsin D; test: Panel of substrates in normals and HIV+ patients (Table 4)
Description: A panel of assay compounds are assembled consisting of Ala-aminopeptidase and Lys-aminopeptidase, Dipeptidyl peptidase IV (Ala-Ala)2 rhodamine 110 and Cathepsin D to indicate possible TB infection in AIDS related cases.
A panel of enzymatic substrates is performed consisting of Ala-aminopeptidase and Lys-aminopeptidase, Dipeptidyl peptidase IV (Ala-Ala)2 rhodamine 110 and Cathepsin D to indicate possible TB infection in AIDS related cases.

granulocyte = test: Peptidases to distinguish leukemia from non-leukemia (Table 6C), grans
Description: Artificial intelligence was used to analyze data of cellular enzyme functions, and determine normal and disease states. Peptidases were used to distinguish leukemia from non-leukemia (output pattern). For input patterns lymphocyte and granulocyte cell types were used with aminopeptidases, cathepsins and dipeptidylpeptidase enzyme activities. In this Example, illustrated in Tables 6A-6C, three normals and three leukemia patients were used as known output patterns for the neural network to learn (in practice, the larger the learning set the more accurate unknown prediction will be). Unknowns were then presented to the learned algorithm as shown in the test case examples. Clinical diagnosis was confirmed by physicians. The trained neural network was able to correctly classify the leukemia from the non-leukemia.

GRANS = test: Aberrant enzyme activities in febrile children (Table 7), grans
MONOS = test: Aberrant enzyme activities in febrile children (Table 7), monos

Molecule	NORMAL E[…] ACTIVITY MEAN (erythrocytes)	NORMAL LEUKOCYTE ENZYME ACTIVITY, MONOS Mean (monocytes)	NORMAL LEUKOCYTE ENZYME ACTIVITY, GRANS Mean (granulocytes)	NORMAL LEUKOCYTE ENZYME ACTIVITY, LYMPHS Mean (lymphocytes)	also measured
CC(=O)Oc1ccc2c(c1)Oc1cc(OC(C)=O)ccc1C21OC(=O)c2ccccc21 [FDA--NAF, fluorescein diacetate, reference compound]	0.136	93.36	81.99	17.98	–
NC(=O)CC[C@H](N)C(=O)N[C@@H](CO)C(=O)Nc1ccc2c(c1)Oc1cc(NC(=O)[C@H](CO)NC(=O)[C@@H](N)CCC(N)=O)ccc1C21OC(=O)c2ccccc21 (relative stereo) [GLN--SER*]	–	–	–	–	MEAN DELTA FL ([1]; HIV + PATIENTS): 13.7 and 12.7; MEAN DELTA FL ([1]; NORMALS): 11.9 and 6.1
NCCCC[C@H](N)C(=O)Nc1ccc2c(c1)Oc1cc(NC(=O)[C@@H](N)CCCCN)ccc1C21OC(=O)c2ccccc21 [LYS, (H--L--Lys)2 Rho 110.4TFA]	–	7.56	4.27	1.16	enzyme activity (granulocyte; N194 NORMAL): 1.66
C[C@H](NC(=O)CNC(=O)[C@H](Cc1ccccc1)NC(=O)CN)C(=O)Nc1ccc2c(c1)Oc1cc(NC(=O)[C@H](C)NC(=O)CNC(=O)[C@H](Cc3ccccc3)NC(=O)CN)ccc1C21OC(=O)c2ccccc21 [GFGA, (Gly-Phe-Gly-Ala)2 Rho 110] (I: H-GFGA / II: H-GFGA; linker I:C-II:C via Rhodamine110)	0.131	1.01	–	–	–
CC(C)C[C@H](NC(=O)[C@@H]1CCCN1C(=O)CN)C(=O)NCC(=O)N1CCC[C@H]1C(=O)Nc1ccc2c(c1)Oc1cc(NC(=O)[C@@H]3CCCN3C(=O)CNC(=O)[C@H](CC(C)C)NC(=O)[C@@H]3CCCN3C(=O)CN)ccc1C21OC(=O)c2ccccc21 [GPLGP, (H--Gly--Pro--Leu--Gly--Pro)2 Rho 110.2TFA] (I: H-GPLGP / II: H-GPLGP; linker I:C-II:C via Rhodamine110)	0.164	23.38	16.88	8.97	–
CC(C)C[C@H](NC(=O)CNC(=O)[C@@H](N)CC(C)C)C(=O)NCC(=O)Nc1ccc2c(c1)Oc1cc(NC(=O)CNC(=O)[C@H](CC(C)C)NC(=O)CNC(=O)[C@@H](N)CC(C)C)ccc1C21OC(=O)c2ccccc21 [LGLG, (H--L--Leu--Gly--Leu--Gly)2 Rho 110.2TFA] (I: H-LGLG / II: H-LGLG; linker I:C-II:C via Rhodamine110)	0.122	11.36	4.08	1.42	–
N=C(N)NCCC[C@H](NC(=O)OCc1ccccc1)C(=O)Nc1ccc2c(c1)Oc1cc(NC(=O)[C@H](CCCNC(=N)N)NC(=O)OCc3ccccc3)ccc1C21OC(=O)c2ccccc21 (stereo partly drawn) [Z--ARG]	0.106	16.80	7.22	2.02	–
O=C1OC2(c3ccc(OC4O[C@H](CO)[C@@H](O)[C@H](O)[C@H]4O)cc3Oc3cc(OC4O[C@H](CO)[C@@H](O)[C@H](O)[C@H]4O)ccc32)c2ccccc21 (stereo partly drawn) [DIGLUC (FL)]	0.110	1.89	0.45	0.23	–
CC(=O)Oc1ccc2c(c1)Oc1cc(OC(C)=O)ccc1C21OC(=O)c2ccccc21 [FDA, fluorescein diacetate, reference compound]	0.126	–	68.37	13.38	–
ALA--GLY*	–	–	–	–	MEAN DELTA FL ([1]; HIV + PATIENTS): 29.7; MEAN DELTA FL ([1]; HIV + PATIENTS, listed as ALA--GLY****): 39.9; MEAN DELTA FL ([1]; NORMALS): 31.6; MEAN DELTA FL ([1]; NORMALS, listed as ALA--GLY****): 48.0
dichlorofluorescein	0.268	–	–	–	aberrant enzyme activity (GRANS; P89 Viral Stomatitis): + (>0.25 Increase over normal range); aberrant enzyme activity (GRANS; P92 Adenitis): + (>0.25 Increase over normal range); aberrant enzyme activity (GRANS; P95 Viral Syndrome): + (>0.25 Increase over normal range); aberrant enzyme activity (GRANS; P96 Viral Syndrome): + (>0.25 Increase over normal range); aberrant enzyme activity (GRANS; P97 Pyelonephritis): + (>0.25 Increase over normal range); aberrant enzyme activity (GRANS; P101 Fever-Unknown Origin): + (>0.25 Increase over normal range); aberrant enzyme activity (GRANS; P103 Viral Syndrome): + (>0.25 Increase over normal range); aberrant enzyme activity (MONOS; P89 Viral Stomatitis): + (>0.25 Increase over normal range); aberrant enzyme activity (MONOS; P92 Adenitis): + (>0.25 Increase over normal range); aberrant enzyme activity (MONOS; P95 Viral Syndrome): + (>0.25 Increase over normal range); aberrant enzyme activity (MONOS; P96 Viral Syndrome): + (>0.25 Increase over normal range); aberrant enzyme activity (MONOS; P97 Pyelonephritis): + (>0.25 Increase over normal range); aberrant enzyme activity (MONOS; P101 Fever-Unknown Origin): + (>0.25 Increase over normal range); aberrant enzyme activity (MONOS; P103 Viral Syndrome): °
CC(C)C[C@H](N)C(=O)NCC(=O)Nc1ccc2c(c1)Oc1cc(NC(=O)CNC(=O)[C@@H](N)CC(C)C)ccc1C21OC(=O)c2ccccc21 [LG]	–	44.56	29.99	13.83	enzyme activity (granulocyte; N193 NORMAL): 3.55; enzyme activity (granulocyte; N199* NORMAL (later found to have cervical cancer)): 2.02
O=C1OC2(c3ccc(OP(=O)(O)O)cc3Oc3cc(OP(=O)(O)O)ccc32)c2ccccc21 [DPO4, (PO4)2 fluorescein]	0.151	148.32	85.42	54.29	–
NCC(=O)Nc1ccc2c(c1)Oc1cc(NC(=O)CN)ccc1C21OC(=O)c2ccccc21 [GLY, (Gly)2 Rho 110]	–	–	29.48	18.18	enzyme activity (granulocyte; N192 NORMAL): 48.67
N=C(N)NCCC[C@H](N)C(=O)NCC(=O)N[C@@H](CCC(=O)O)C(=O)N[C@@H](CO)C(=O)Nc1ccc2c(c1)Oc1cc(NC(=O)[C@H](CO)NC(=O)[C@H](CCC(=O)O)NC(=O)CNC(=O)[C@@H](N)CCCNC(=N)N)ccc1C21OC(=O)c2ccccc21 (stereo partly drawn) [RGES, (Arg-Gly-Glu-Ser)2 Rho 110] (I: H-RGES / II: H-RGES; linker I:C-II:C via Rhodamine110)	0.118	8.37	3.96	1.43	–
O=C(NCC(=O)N1CCC[C@H]1C(=O)Nc1ccc2c(c1)Oc1cc(NC(=O)[C@@H]3CCCN3C(=O)CNC(=O)OCc3ccccc3)ccc1C21OC(=O)c2ccccc21)OCc1ccccc1 [Z--GP, (carbobenzyloxycarbonyl-Gly-Pro)2 Rho 110]	–	225.10	240.99	107.56	–
O=C(CCl)Oc1ccc2c(c1)Oc1cc(OC(=O)CCl)ccc1C21OC(=O)c2ccccc21 [CHLOAC, FL(chloroacetate)2]	–	7.33	6.48	2.49	–
C[C@H](NC(=O)[C@@H](N)CCCCN)C(=O)Nc1ccc2c(c1)Oc1cc(NC(=O)[C@H](C)NC(=O)[C@@H](N)CCCCN)ccc1C21OC(=O)c2ccccc21 [KA, (Lys-Ala)2 Rho 110]	–	39.35	29.15	11.47	–
